Data on 19 compounds can be found in US11981686B2, “Urea compound having substituent” (DAIICHI SANKYO COMPANY, LIMITED, priority 2019, dated 2024).

For the test, the target named is SIRT6 enzyme (Homo sapiens, UniProt Q8N6T7). The experiment in a line: Measurement of deacetylation activity (SIRT6, AlphaLISA, H3K9(Ac) peptide). In kind it is biochemical. The conditions noted are these: SIRT6 25 ng/mL, H3K9(Ac) biotin peptide 2 nM, NAD 10 μM, room temperature 30 minutes, duplicate. Here is the method: The reaction was performed in duplicate using a white 384-well plate (3824, Corning or 6008350, PerkinElmer) at a final reaction liquid volume of 20.1 μL. As a control for calculating the enzyme activity, the enzyme-added (DMSO (+)) and enzyme-free (DMSO (−)) wells were set at n=8. Test substances (examples of final concentrations: 0.046, 0.14, 0.41, 1.2, 3.7, 11, 33, and 100 μM) at a concentration of 100 times or 0.1 μL of DMSO was dispensed into the plate and 5 μL of SIRT6 enzyme (prepared by Daiichi Sankyo RD Novare Co., Ltd., final concentration: 25 ng/mL) diluted with an assay buffer (10 mM Tris-HCl pH of 8.0, 0.1% BSA, 0.01% Tween 20, 1 mM DTT, 12.5% Glycerol) was added thereto. The enzymatic reaction was started by adding 5 μL of a mixed solution [Lys(Ac)9]-Histone H3 (1-21)-NH2, H3K9 (Ac), biotin-labeled, amide (AnaSpec, AS-64190, final concentration: 2 nM) and β-nicotinamide adenine dinucleotide (Sigma-Aldrich, N8285-15VL, final concentration: 10 μM), and the reaction was performed at room temperature for 30 minutes. 10 μL of a mixed solution of nicotinamide (Sigma-Aldrich, 72340-100G, final concentration: 100 mM) prepared with AlphaLISA Epigenetics Buffer (PerkinElmer, AL008C), AlphaLISA Anti-unmodified Histone H3 Lysine 9/Lysine 27 (H3K9/K27) Acceptor Beads (PerkinElmer, AL138, final concentration: 10 μg/mL), and AlphaScreen Streptavidin Donor beads (PerkinElmer, 6760002, final concentration: 5 μg/mL) was added thereto, the reaction was performed at room temperature for 60 minutes and then stopped, and acetylation was detected. The emission intensity was measured by EnVision (PerkinElmer).
SIRT6 enzyme, sequence (Q8N6T7 whole entry, species assumed): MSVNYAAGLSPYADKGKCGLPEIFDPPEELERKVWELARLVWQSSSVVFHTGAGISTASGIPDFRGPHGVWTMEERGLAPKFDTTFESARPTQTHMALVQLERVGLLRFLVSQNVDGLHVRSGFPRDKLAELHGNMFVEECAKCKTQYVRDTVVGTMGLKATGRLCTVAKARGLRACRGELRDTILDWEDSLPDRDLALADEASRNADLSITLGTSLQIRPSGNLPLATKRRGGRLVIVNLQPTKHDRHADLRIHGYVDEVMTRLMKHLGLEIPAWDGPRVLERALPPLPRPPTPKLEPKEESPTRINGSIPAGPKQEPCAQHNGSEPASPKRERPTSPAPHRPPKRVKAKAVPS
The relative enzyme activity (%) of the test substance was calculated by the following equation. Relative enzyme activity (%)=[(emission intensity of test substance-added well−emission intensity of DMSO (−) well)/(emission intensity of DMSO (+) well−emission intensity of DMSO (−) well)]×100
The EC150 (the concentration of the compound showing a relative enzyme activity of 150%) of the test substance was calculated based on Sigmoidal dose-response (variable slope) of GraphPad Prism (GraphPad Software) using the value of the relative enzyme activity (%) at each concentration, and the results are listed in Tables 1-1 to 1-5.
As to `[2H]C([2H])([2H])Oc1ccc2oc(N3[C@@H]4COC[C@H]3c3sc(NC(=O)N[C@@H]5CCOC5)nc3C4)nc2c1` [Example 77, N-[(4S,8S)-10-{5-[(^2H3)methyloxy]-1,3-benzoxazol-2-yl}-4,7,8,9-tetrahydro-5H-4,8-epiminooxocino[5,4-d][1,3]thiazol-2-yl]-N′-[(3R)-oxolan-3-yl]urea], the “EC150 (the concentration of the compound showing a relative enzyme activity of 150%)” value was found to be 0.79 μm.

Regarding `O=C(NCc1nnc[nH]1)Nc1nc2c(s1)CN(c1nc(C3CCC(F)(F)CC3)no1)CC2` [Example 102, N-{5-[3-(4,4-difluorocyclohexyl)-1,2,4-oxadiazol-5-yl]-4,5,6,7-tetrahydro[1,3]thiazolo[5,4-c]pyridin-2-yl}-N′-[(4H-1,2,4-triazol-3-yl)methyl]urea], the “EC150 (the concentration of the compound showing a relative enzyme activity of 150%)” value is recorded as 0.33 μm.

On to `CNC(=O)Nc1nc2c(s1)[C@@H]1COC[C@H](C2)N1c1nnc(-c2cccc(OC(C)C)c2)o1` [Example 122, N-methyl-N′-[(4S,8S)-10-(5-{3-[(propan-2-yl)oxy]phenyl}-1,3,4-oxadiazol-2-yl)-4,7,8,9-tetrahydro-5H-4,8-epiminooxocino[5,4-d][1,3]thiazol-2-yl]urea], for which the “EC150 (the concentration of the compound showing a relative enzyme activity of 150%)” value is 1.5 μm.

For `C[C@H](CO)NC(=O)Nc1nc2c(s1)CN(c1nccc(C3CCCOC3)n1)CC2` (stereo partly drawn) [Example 191, N-[(2R)-1-hydroxypropan-2-yl]-N′-{5-[4-(oxan-3-yl)pyrimidin-2-yl]-4,5,6,7-tetrahydro[1,3]thiazolo[5,4-c]pyridin-2-yl}urea], the “EC150 (the concentration of the compound showing a relative enzyme activity of 150%)” value worked out at 1.2 μm.

Consider `CNC(=O)Nc1nc2c(s1)C1CN(C(=O)OC)CC(C2)N1c1nc2cc(OC)ccc2o1` (stereo not shown) [Example 141, Methyl 10-(5-methoxy-1,3-benzoxazol-2-yl)-2-[(methylcarbamoyl)amino]-4,7,8,9-tetrahydro-4,8-epimino[1,3]thiazolo[5,4-d]azocine-6(5H)-carboxylate], for which the “EC150 (the concentration of the compound showing a relative enzyme activity of 150%)” value is listed as 0.58 μm.

Consider `O=C(NCC(F)(F)F)Nc1nc2c(s1)C1COCC(C2)N1c1nnc(-c2cccc(C(=O)C3CC3)c2)o1` (stereo not shown) [Example 114], for which the “EC150 (the concentration of the compound showing a relative enzyme activity of 150%)” value turned out to be 2.4 μm.

With `O=C(Nc1nc2c(s1)CN(c1nc(C3(C(F)(F)F)CC3)no1)CC2)N[C@H]1C[C@H](O)C1` [Example 97, N-[(1r,3r)-3-hydroxycyclobutyl]-N′-(5-{3-[1-(trifluoromethyl)cyclopropyl]-1,2,4-oxadiazol-5-yl}-4,5,6,7-tetrahydro[1,3]thiazolo[5,4-c]pyridin-2-yl)urea], the “EC150 (the concentration of the compound showing a relative enzyme activity of 150%)” value stood at 1.3 μm.

Turning to `CNC(=O)Nc1nc2c(s1)[C@@H]1COC[C@H](C2)N1c1nc2cc(C)ccc2o1` [Example 49, N-methyl-N′-[(4S,8S)-10-(5-methyl-1,3-benzoxazol-2-yl)-4,7,8,9-tetrahydro-5H-4,8-epiminooxocino[5,4-d][1,3]thiazol-2-yl]urea], the “EC150 (the concentration of the compound showing a relative enzyme activity of 150%)” value was 1.5 μm.

On to `CNC(=O)Nc1nc2c(s1)C1COCC(C2)N1c1nnc(-c2cccc(C(=O)C3CCC3)c2)o1` (stereo not shown) [Example 113, N-(10-{5-[3-(cyclobutanecarbonyl)phenyl]-1,3,4-oxadiazol-2-yl}-4,7,8,9-tetrahydro-5H-4,8-epiminooxocino[5,4-d][1,3]thiazol-2-yl)-N′-methylurea], for which the “EC150 (the concentration of the compound showing a relative enzyme activity of 150%)” value is 2.6 μm.

Turning to `CCNC(=O)Nc1nc2c(s1)C1CN(C(C)=O)CC(C2)N1c1nc(-c2ccc(F)cc2)no1` (stereo not shown) [Example 136, N-{6-acetyl-10-[3-(4-fluorophenyl)-1,2,4-oxadiazol-5-yl]-4,5,6,7,8,9-hexahydro-4,8-epimino[1,3]thiazolo[5,4-d]azocin-2-yl}-N′-ethylurea], the “EC150 (the concentration of the compound showing a relative enzyme activity of 150%)” value is on record as 0.34 μm.

In the case of `CC(C)(CO)NC(=O)Nc1nc2c(s1)[C@@H]1COC[C@H](C2)N1c1ncc(-c2cccc(OC(F)F)c2)o1` [Example 170, N-[(4S,8S)-10-{5-[3-(difluoromethoxy)phenyl]-1,3-oxazol-2-yl}-4,7,8,9-tetrahydro-5H-4,8-epiminooxocino[5,4-d][1,3]thiazol-2-yl]-N′-(1-hydroxy-2-methylpropan-2-yl)urea], the “EC150 (the concentration of the compound showing a relative enzyme activity of 150%)” value was found to be 1.2 μm.

As for `COc1cccc(-c2cc(N3[C@@H]4COC[C@H]3c3sc(NC(=O)NC5CCOCC5)nc3C4)no2)n1` [Example 62, N-{(4S,8S)-10-[5-(6-methoxypyridin-2-yl)-1,2-oxazol-3-yl]-4,7,8,9-tetrahydro-5H-4,8-epiminooxocino[5,4-d][1,3]thiazol-2-yl}-N′-oxan-4-ylurea], the “EC150 (the concentration of the compound showing a relative enzyme activity of 150%)” value is 2.6 μm.

On to `COc1cccc(-c2cnc(N3[C@@H]4COC[C@H]3c3sc(NC(=O)N[C@H]5CC[C@@H](O)CC5)nc3C4)o2)n1` [Example 187, N-[(1s,4s)-4-hydroxycyclohexyl]-N′-{(4S,8S)-10-[5-(6-methoxypyridin-2-yl)-1,3-oxazol-2-yl]-4,7,8,9-tetrahydro-5H-4,8-epiminooxocino[5,4-d][1,3]thiazol-2-yl}urea], for which the “EC150 (the concentration of the compound showing a relative enzyme activity of 150%)” value is 0.64 μm.

For the compound `CNC(=O)Nc1nc2c(s1)C1CN(C(C)=O)CC(C2)N1c1ncc(-c2cccc(OC)n2)o1` (stereo not shown) [Example 129, N-{6-acetyl-10-[5-(6-methoxypyridin-2-yl)-1,3-oxazol-2-yl]-4,5,6,7,8,9-hexahydro-4,8-epimino[1,3]thiazolo[5,4-d]azocin-2-yl}-N′-methylurea], the “EC150 (the concentration of the compound showing a relative enzyme activity of 150%)” value turned out to be 0.38 μm.

Regarding `O=C(Nc1nc2c(s1)[C@@H]1COC[C@H](C2)N1c1cc(-c2ccc(F)cc2)on1)N[C@@H]1CCOC1` [Example 155], the “EC150 (the concentration of the compound showing a relative enzyme activity of 150%)” value was determined as 0.51 μm.

`COc1cc2nc(N3[C@@H]4COC[C@H]3c3sc(NC(=O)N[C@@H]5CCOC5)nc3C4)oc2cc1C` [Example 45, N-[(4S,8S)-10-(5-methoxy-6-methyl-1,3-benzoxazol-2-yl)-4,7,8,9-tetrahydro-5H-4,8-epiminooxocino[5,4-d][1,3]thiazol-2-yl]-N′-[(3R)-oxolan-3-yl]urea]: the “EC150 (the concentration of the compound showing a relative enzyme activity of 150%)” value is recorded as 0.79 μm.

On to `O=C(NCCOCCO)Nc1nc2c(s1)CN(c1nc(C3CCC(F)(F)CC3)no1)CC2` [Example 34, N-{5-[3-(4,4-difluorocyclohexyl)-1,2,4-oxadiazol-5-yl]-4,5,6,7-tetrahydro[1,3]thiazolo[5,4-c]pyridin-2-yl}-N′-[2-(2-hydroxyethoxy)ethyl]urea], for which the “EC150 (the concentration of the compound showing a relative enzyme activity of 150%)” value turned out to be 1.9 μm.

Turning to `CC(C)(O)CNC(=O)Nc1nc2c(s1)[C@@H]1COC[C@H](C2)N1c1cc(-c2ccc(F)cc2)on1` [Example 63, N-{(4S,8S)-10-[5-(4-fluorophenyl)-1,2-oxazol-3-yl]-4,7,8,9-tetrahydro-5H-4,8-epiminooxocino[5,4-d][1,3]thiazol-2-yl}-N′-(2-hydroxy-2-methylpropyl)urea], the “EC150 (the concentration of the compound showing a relative enzyme activity of 150%)” value turned out to be 2.3 μm.

Turning to `C[C@H](CO)NC(=O)Nc1nc2c(s1)C1CCC(C2)N1c1nc2cc(S(C)(=O)=O)ccc2o1` (stereo partly drawn) [Example 152, N-[(2R)-1-hydroxypropan-2-yl]-N′-{9-[5-(methanesulfonyl)-1,3-benzoxazol-2-yl]-5,6,7,8-tetrahydro-4H-5,8-epiminocyclohepta[d][1,3]thiazol-2-yl}urea], the “EC150 (the concentration of the compound showing a relative enzyme activity of 150%)” value came to 2.7 μm.
